In one data set the test system is ad libitum fed rat model. Briefly: Assay (I) efficacy testing on appetite, ad libitum fed rat model. In kind it is in vivo. As to the method: Assay (I)—Experimental protocol for efficacy testing on appetite with MC4 analogues, using an ad libitum fed rat model. TAC:SPRD @mol rats or Wistar rats from M&B Breeding and Research Centre A/S, Denmark are used for the experiments. The rats have a body weight 200-250 g at the start of experiment. The rats arrive at least 10-14 days before start of experiment with a body weight of 180-200 g. Each dose of compound is tested in a group of 8 rats. […] When the animals arrive they are housed individually in a reversed light/dark phase (lights off 7:30 am, lights on 7:30 pm), meaning that lights are off during daytime and on during nighttime. […] During this period the animals are handled at least 3 times. The experiment is conducted in the rats' home cages. Immediately before dosing the rats are randomised to the various treatment groups (n 8) by body weight. They are dosed according to body weight at between 7:00 am and 7:45 am, with a 1-3 mg/kg solution administered intraperitoneally (ip), orally (po) or subcutaneously (sc). The time of dosing is recorded for each group. After dosing, the rats are returned to their home cages, where they then have access to food and water. […] At the end of the experimental session, the animals are euthanised. The individual data are recorded in Microsoft excel sheets. Outliers are excluded after applying the Grubbs statistical evaluation test for outliers, and the result is presented graphically using the GraphPad Prism program.

A further data set deals with T1, human MC4 receptor (Homo sapiens, UniProt P32245).
T1 construct: expressed in transfected cells
T1 sequence (P32245 whole entry): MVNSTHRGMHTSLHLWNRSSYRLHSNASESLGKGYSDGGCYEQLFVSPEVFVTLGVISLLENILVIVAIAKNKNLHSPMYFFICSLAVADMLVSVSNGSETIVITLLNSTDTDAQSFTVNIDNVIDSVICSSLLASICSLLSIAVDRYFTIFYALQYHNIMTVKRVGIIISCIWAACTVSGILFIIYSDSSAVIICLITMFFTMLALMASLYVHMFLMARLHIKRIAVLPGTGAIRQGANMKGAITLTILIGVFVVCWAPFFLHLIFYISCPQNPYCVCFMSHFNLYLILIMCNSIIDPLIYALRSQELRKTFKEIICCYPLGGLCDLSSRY
Nature of the data set: Assay (V) Melanocortin Receptor 4 (MC4) binding assay. The note with it: 125NDP-α-MSH binding, BHK cell membranes; read-out: Assay (V) MC4 [Ki]. A digest of the protocol:
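BHK membranes stably expressing human MC4 receptor were incubated with ^125NDP-α-MSH (≈79 pM final) and compound for 2 h at 25 °C, pH 7.0 HEPES buffer with HSA or ovalbumin. Filter-bound radioactivity was gamma counted. Binding curves were fitted by non-linear regression.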

For another data set, the target named is T2, MC1 receptor (Homo sapiens, UniProt Q01726).
T2 construct: expressed in transfected cells
T2 sequence (Q01726 whole entry): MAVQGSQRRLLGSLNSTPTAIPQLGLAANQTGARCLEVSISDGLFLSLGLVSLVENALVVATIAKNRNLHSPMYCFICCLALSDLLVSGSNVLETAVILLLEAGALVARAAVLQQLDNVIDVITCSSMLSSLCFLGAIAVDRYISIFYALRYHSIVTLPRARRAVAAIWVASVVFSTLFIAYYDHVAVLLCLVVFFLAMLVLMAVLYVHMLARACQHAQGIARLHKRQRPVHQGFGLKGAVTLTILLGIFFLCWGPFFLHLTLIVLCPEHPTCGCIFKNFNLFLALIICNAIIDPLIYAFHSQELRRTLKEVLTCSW
Briefly: Assay (IV) Melanocortin Receptor 1 (MC1) binding assay. The note with it: 125NDP-α-MSH binding, BHK cell membranes; read-out: Assay (IV) MC1 Ki. A digest of the protocol:
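Competition binding used BHK cell membranes stably expressing MC1 (25 μg/ml) with 22 pM final ^125NDP-α-MSH in 25 mM HEPES pH 7.4, CaCl2, MgSO4, EDTA, 0.1% HSA (or ovalbumin), 0.005% Tween 20. After 90 min at 30° C., bound radioligand was filtered and counted, with binding curves fitted by non-linear regression.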

Data set [1] in a line: Solubility data of compounds in water over the pH range. In kind it is physicochemical.

Broadly, the Ki is a dissociation constant, usually derived from enzyme kinetics or from competition with a known ligand. The term solubility denotes the dissolved amount per volume that the medium holds.

Converted amounts (≈) assume the structure as drawn. Like-named read-outs stand apart in the source and are kept apart here. *1 amine or outer side, *2 acyl side, *3 side chain or, on linkers, in order; H or OH if unused. Where a SMILES comes first, the peptide text is derived from it. Bridges are numbered along the chain shown (N, C = ends). Side-chain parts run from the residue outwards. [ ]: non-standard residue; d: D form. The star is where a group is joined. Palmitoyl(16-(5-tetrazolyl)) = O=C(CCCCCCCCCCCCCCCc1nnn[nH]1)*; C18 diacid = O=C(O)CCCCCCCCCCCCCCCCC(=O)*; C16 diacid = O=C(O)CCCCCCCCCCCCCCC(=O)*; γGlu = O=C(O)[C@H](CCC(=O)[*:2])N[*:1]; Hyp = O=C(O)[C@@H]1C[C@@H](O)CN1; NTA = O=C(O)CN(CC(=O)O)CC(=O)*; Nle = CCCC[C@H](N)C(=O)O; Dap = NC[C@H](N)C(=O)O; AEEA = NCCOCCOCC(=O)O

`CCCC[C@H](NC(=O)[C@H](CCCCNC(=O)CN(CC(=O)O)CC(=O)O)NC(=O)[C@H](Cc1c[nH]cn1)NC(=O)[C@H](CCC(N)=O)NC(=O)[C@H](CO)NC(=O)CNC(=O)COCCOCCNC(=O)CCCCCCCCCCCCCCCc1nnn[nH]1)C(=O)N[C@H]1CCC(=O)NCCCC[C@@H](C(N)=O)NC(=O)[C@H](Cc2c[nH]c3ccccc23)NC(=O)[C@H](CCCNC(=N)N)NC(=O)[C@@H](Cc2ccccc2)NC(=O)[C@@H]2C[C@@H](O)CN2C1=O` [Example 1, (2-{2-[16-(Tetrazol-5-yl)hexadecanoylamino]ethoxy}ethoxy)acetyl-Gly-Ser-Gln-His-Lys(BCMA)-Nle-c[Glu-Hyp-D-Phe-Arg-Trp-Lys]-NH2] ({Palmitoyl(16-(5-tetrazolyl))-AEEA}-GSQHK(NTA)[Nle]E[Hyp][dF]RWK-NH2; lactam 7-12): in the data set on ad libitum fed rat model (dosing 3 mg/kg), the “Food consumption (% of vehicle) 24 h” value is on record as 65 % of vehicle and the “Food consumption (% of vehicle) 48 h” value was 72 % of vehicle. The Ki on human MC4 receptor came out at 0.4 nM. For the same molecule, at MC1 receptor, the Ki is more than 10000 nM.
On to `CCCC[C@H](NC(=O)[C@H](CNC(=O)[C@H](Cc1c[nH]cn1)NC(=O)[C@H](CCC(N)=O)NC(=O)[C@H](CO)NC(=O)CNC(=O)COCCOCCNC(=O)CCCCCCCCCCCCCCCc1nnn[nH]1)NC(=O)CN(CC(=O)O)CC(=O)O)C(=O)N[C@H]1CCC(=O)NCCCC[C@@H](C(N)=O)NC(=O)[C@H](Cc2c[nH]c3ccccc23)NC(=O)[C@H](CCCNC(=N)N)NC(=O)[C@@H](Cc2ccccc2)NC(=O)[C@@H]2C[C@@H](O)CN2C1=O` [Example 2, (2-{2-[16-(Tetrazol-5-yl)hexadecanoylamino]ethoxy}ethoxy)acetyl-Gly-Ser-Gln-His-β-Dap(BCMA)-Nle-c[Glu-Hyp-D-Phe-Arg-Trp-Lys]-NH2] ({NTA}-[Dap]([His-Gln-Ser-Gly-AEEA-Palmitoyl(16-(5-tetrazolyl))])[Nle]E[Hyp][dF]RWK-NH2; lactam 3-8), for which the solubility at 3 days in data set [1] (pH 3.02, pH 3.02, read-out: Conc (solubility in water)) came to 320 µM (≈ 670 µg/mL); in data set [1] (pH 3.84, pH 3.84, read-out: Conc (solubility in water)), 421 µM (≈ 881 µg/mL); in data set [1] (pH 4.3, pH 4.3, read-out: Conc (solubility in water)) it was 216 µM (≈ 452 µg/mL); in data set [1] (pH 4.64, pH 4.64, read-out: Conc (solubility in water)) it was 49 µM (≈ 103 µg/mL); in data set [1] (pH 5.22, pH 5.22, read-out: Conc (solubility in water)), 13 µM (≈ 27.2 µg/mL); in data set [1] (pH 6.55, pH 6.55, read-out: Conc (solubility in water)) it was 14 µM (≈ 29.3 µg/mL). Besides, the solubility at 3 days was determined as 122 µM (≈ 255 µg/mL) in data set [1] (pH 7.2, pH 7.2, read-out: Conc (solubility in water)); 251 µM (≈ 525 µg/mL) in data set [1] (pH 7.36, pH 7.36, read-out: Conc (solubility in water)); 320 µM (≈ 670 µg/mL) in data set [1] (pH 7.53, pH 7.53, read-out: Conc (solubility in water)); 77 µM (≈ 161 µg/mL) in data set [1] (pH 7.81, pH 7.81, read-out: Conc (solubility in water)). The “Food consumption (% of vehicle) 24 h” value in the data set with ad libitum fed rat model (dosing 1 mg/kg) is 60 % of vehicle. Besides, the “Food consumption (% of vehicle) 48 h” value in the data set on ad libitum fed rat model (dosing 1 mg/kg) was 71 % of vehicle. The Ki on human MC4 receptor worked out at 3.43 nM; at MC1 receptor, 5570 nM.
Take `CCCC[C@H](NC(=O)[C@H](CCCCNC(=O)CN(CC(=O)O)CC(=O)O)NC(=O)[C@H](CO)NC(=O)[C@H](CCC(N)=O)NC(=O)[C@H](CO)NC(=O)CNC(=O)COCCOCCNC(=O)CCCCCCCCCCCCCCCc1nnn[nH]1)C(=O)N[C@H]1CCC(=O)NCCCC[C@@H](C(N)=O)NC(=O)[C@H](Cc2c[nH]c3ccccc23)NC(=O)[C@H](CCCNC(=N)N)NC(=O)[C@@H](Cc2ccccc2)NC(=O)[C@@H]2C[C@@H](O)CN2C1=O` [Example 15, (2-{2-[16-(Tetrazol-5-yl)hexadecanoylamino]ethoxy}ethoxy)acetyl-Gly-Ser-Gln-Ser-Lys(BCMA)-Nle-c[Glu-Hyp-D-Phe-Arg-Trp-Lys]-NH2] ({Palmitoyl(16-(5-tetrazolyl))-AEEA}-GSQSK(NTA)[Nle]E[Hyp][dF]RWK-NH2; lactam 7-12): in the data set with ad libitum fed rat model (dosing 1 mg/kg), the “Food consumption (% of vehicle) 24 h” value is 74 % of vehicle and the “Food consumption (% of vehicle) 48 h” value was 85 % of vehicle. The Ki on human MC4 receptor was found to be 3.15 nM. At MC1 receptor, the Ki is more than 10000 nM.
In the case of `CCCC[C@H](NC(=O)[C@H](CNC(=O)CN(CC(=O)O)CC(=O)O)NC(=O)[C@H](Cc1c[nH]cn1)NC(=O)[C@H](CCC(N)=O)NC(=O)[C@H](CO)NC(=O)CNC(=O)COCCOCCNC(=O)COCCOCCNC(=O)CC[C@H](NC(=O)CCCCCCCCCCCCCCCCC(=O)O)C(=O)O)C(=O)N[C@H]1CCC(=O)NCCCC[C@@H](C(N)=O)NC(=O)[C@H](Cc2c[nH]c3ccccc23)NC(=O)[C@H](CCCNC(=N)N)NC(=O)[C@@H](Cc2ccccc2)NC(=O)[C@@H]2C[C@@H](O)CN2C1=O` [Example 18, (2-{2-[2-(2-{2-[(S)-4-Carboxy-4-(17-carboxyheptadecanoylamino)butanoylamino]ethoxy}ethoxy)acetylamino]ethoxy}ethoxy)acetyl-Gly-Ser-Gln-His-Dap(BCMA)-Nle-c[Glu-Hyp-D-Phe-Arg-Trp-Lys]-NH2] ({C18 diacid-γGlu-AEEA-AEEA}-GSQH[Dap](NTA)[Nle]E[Hyp][dF]RWK-NH2; lactam 7-12), the solubility at 3 days in data set [1] (pH 3.7) was found to be 391 µM (≈ 921 µg/mL); in data set [1] (pH 5.2), 25 µM (≈ 58.9 µg/mL); in data set [1] (pH 5.96), 78 µM (≈ 184 µg/mL); in data set [1] (pH 6.56), 249 µM (≈ 587 µg/mL); in data set [1] (pH 6.73) it was 342 µM (≈ 806 µg/mL); in data set [1] (pH 6.95) it was 382 µM (≈ 900 µg/mL). Moreover, the solubility at 3 days in data set [1] (pH 7.07) was 485 µM (≈ 1140 µg/mL); in data set [1] (pH 7.51), 498 µM (≈ 1170 µg/mL). For the same molecule, the Ki at human MC4 receptor was 5.35 nM; at MC1 receptor it was more than 10000 nM.
In the case of `CCCC[C@H](NC(=O)[C@H](CCCCNC(=O)CN(CC(=O)O)CC(=O)O)NC(=O)[C@H](CO)NC(=O)[C@H](CCC(N)=O)NC(=O)[C@H](CO)NC(=O)CNC(=O)COCCOCCNC(=O)CCCCCCCCCCCCCCC(=O)O)C(=O)N[C@H]1CCC(=O)NCCCC[C@@H](C(N)=O)NC(=O)[C@H](Cc2c[nH]c3ccccc23)NC(=O)[C@H](CCCNC(=N)N)NC(=O)[C@@H](Cc2ccccc2)NC(=O)[C@@H]2C[C@@H](O)CN2C1=O` [Example 21, {2-[2-(15-Carboxypentadecanoylamino)ethoxy]ethoxy}acetyl-Gly-Ser-Gln-Ser-Lys(BCMA)-Nle-c[Glu-Hyp-D-Phe-Arg-Trp-Lys]-NH2] ({C16 diacid-AEEA}-GSQSK(NTA)[Nle]E[Hyp][dF]RWK-NH2; lactam 7-12), the solubility at 3 days in data set [1] (pH 4.04) amounted to 26 µM (≈ 53.2 µg/mL); in data set [1] (pH 4.34), 32 µM (≈ 65.5 µg/mL); in data set [1] (pH 4.74), 40 µM (≈ 81.9 µg/mL); in data set [1] (pH 5.21) it was 58 µM (≈ 119 µg/mL); in data set [1] (pH 5.67), 103 µM (≈ 211 µg/mL); in data set [1] (pH 6.26), 108 µM (≈ 221 µg/mL). Besides, the solubility at 3 days in data set [1] (pH 6.29) amounted to 106 µM (≈ 217 µg/mL); in data set [1] (pH 6.87) it was 117 µM (≈ 239 µg/mL); in data set [1] (pH 7.6), 116 µM (≈ 237 µg/mL); in data set [1] (pH 7.61) it was 107 µM (≈ 219 µg/mL). The values for the Ki on human MC4 receptor and on MC1 receptor were 14.7 nM and more than 10000 nM, respectively.

Source of the values: patent US20100173835A1, “Peptides for Treatment of Obesity” (Novo Nordisk A/S, priority 2008, published 2010).
